Assay results as given in patent US7510825B2, “Kits and methods for detection of apoptotic cells” (NST NeuroSurvival Technologies Ltd, priority 2000, dated 2009).

Legend:
[1] = system: BCL1 bone marrow cells; assay: Detection by DDC of apoptosis in BCL1 bone marrow cells following chemotherapy; type: in vivo, mice
Experimental: (§1) A. Administration of DDC in-vivo: Injection of 200 μl of DDC intravenously. Following 1-2 hours, animal is sacrificed, and the desired organ is placed in a test tube or on a small plate, suitable for liquid nitrogen freezing. The plate is then covered with an aluminum foil, and transferred to liquid nitrogen. Following 5-30 minutes the specimen is being frozen to −80° C. and kept at −80° C. for at least 16 hr. B. Analysis of the Specimen: • a. Whole organ imaging Ex-vivo whole organ fluorescence imaging may be carried out on freshly excised specimen, that can be analyzed under a stereomicroscope (such as Leica MZ FL III, Leica Switzerland). DDC may be visualized using 360cx and >420cm nm filter set. Emitted fluorescence can be imaged using appropriate camera and software, such as a Leica DC 300F Distal camera and images can be processed and analyzed by Leica QWin Lite software. • b. Histological analysis, from the frozen organ or tissue, 4 μm cryosections are prepared on slides. Analysis of the tissue sections can be performed using a fluorescence microscope with a UV filter characterized by excitation at 360-370 nm (band pass) and emission at 420 nm (barrier filter) In case that staining of the examined tissue is desired, the following procedures can be applied: […]

[2] = system: MCF-7 breast carcinoma tumors; assay: Detection by DDC of apoptosis in breast carcinoma after irradiation; type: in vivo, mice; conditions: following irradiation (two doses of 8 Gray) vs non irradiated
Experimental: as §1

CN(C)c1cccc2c(S(=O)(=O)NC(CSSCC(NS(=O)(=O)c3cccc4c(N(C)C)cccc34)C(=O)O)C(=O)O)cccc12 (stereo not drawn) [DDC]
fluorescent labeling of bone marrow cells ([1]; 24 hr following Cyclophosphamide 300 mg/kg and Taxol 20 mg/kg): a significant number of apoptotic/necrotic cells are labeled | fluorescent labeling of bone marrow cells ([1]; non-treated group): no fluorescent labeling | uptake of DDC into single cells of the tumor [2]: increased uptake
